How the values were obtained:
Experiment in all cases: in vitro susceptibility, MIC by mini broth dilution
Type in all cases: cell-based
[1] = test system: Staphylococcus aureus CVCC26003; details: strain CVCC26003
Protocol: (§1) in vitro tests of susceptibility of the compounds according to the present disclosure against bacterial strains commonly used in laboratories. In accordance with the Performance Standards for Antimicrobial Disk Susceptibility Tests: Approved Standard published by the US National Committee for Clinical Laboratory Standards, the antibacterial activities of compounds prepared according to examples 5 to 187 were tested. The MICs (minimum inhibitory concentration) of the medicaments prepared according to the examples on the following bacterial strains were measured through mini broth dilution technique. Staphylococcus aureus CVCC26003, Streptococcus equines CVCC556. Actinobacillus pleuropneumoniae CVCC262, Haemophilus parasuis, and Pasteurella multocida CVCC399, which were purchased from the Control Institute of Veterinary Bioproducts and Pharmaceuticals, China. 4.1.1 Culture Medium for Staphylococcus aureus CVCC26003 Liquid culture medium: CAMHB. […] Solid culture medium: NINA prepared according to the specification of the final product. The strains were taken out of a refrigerator at −20° C. to be revived, and were spreaded by streaking on the solid culture medium with an inoculating loop. The inoculated culture medium was cultured at 35° C. in a constant temperature incubator for 20 h. […] were selected from a well-grown culture plate and streaked on the solid culture medium. The inoculated culture medium was cultured at 35° C. in the constant temperature incubator for 20 h. […] A 96-well plate was used, and 100 μl of DMSO was added into each of wells 2 to 11, and 200 μl of ready-prepared medicament solution was added into the 1st well, 100 μl of the medicament solution was extracted from the 1st well and added into the 2nd well. Double dilution was performed until the 11th well, thereby forming 11 gradients. In this case, compound of parent plate was prepared. 3 μl of double diluted medicament solution was extracted with a 12-channel pipettor and added into wells 1-11 of a new disposable 96-well culture plate. The 12th well thereof is a control well. For each medicament, there are two adjacent rows which are parallel. The transferred compound plate was reserved for later use. […] The dilution ratio was recorded, and the bacterial liquid for the tests was diluted according to the recorded dilution ratio. Subsequently, the bacterial suspension and the liquid culture medium were diluted in the proportion of 1:200. The diluted solution was reserved for later use.

Haemophilus parasuis = test system: Haemophilus parasuis
Protocol: as §1, with “China. 4.1.2” for “China. 4.1.1”, “Culture Media” for “Culture Medium”, “for the Rest Four Bacterial Strains.” for “for Staphylococcus aureus CVCC26003”, “medium:” for “medium: CAMHB.”, “medium: […]” for “medium: NINA prepared according to the specification of the final product.”

[2] = test system: Pasteurella multocida CVCC399; details: strain CVCC399
Protocol: as §1, with “China. 4.1.2” for “China. 4.1.1”, “Culture Media” for “Culture Medium”, “for the Rest Four Bacterial Strains.” for “for Staphylococcus aureus CVCC26003”, “medium:” for “medium: CAMHB.”, “medium: […]” for “medium: NINA prepared according to the specification of the final product.”

[3] = test system: Streptococcus equines CVCC556; details: strain CVCC556
Protocol: as §1, with “China. 4.1.2” for “China. 4.1.1”, “Culture Media” for “Culture Medium”, “for the Rest Four Bacterial Strains.” for “for Staphylococcus aureus CVCC26003”, “medium:” for “medium: CAMHB.”, “medium: […]” for “medium: NINA prepared according to the specification of the final product.”

[4] = test system: Actinobacillus pleuropneumoniae CVCC262; details: strain CVCC262
Protocol: as §1, with “China. 4.1.2” for “China. 4.1.1”, “Culture Media” for “Culture Medium”, “for the Rest Four Bacterial Strains.” for “for Staphylococcus aureus CVCC26003”, “medium:” for “medium: CAMHB.”, “medium: […]” for “medium: NINA prepared according to the specification of the final product.”

SMILES	MIC values, Staphylococcus aureus CVCC26003 [1]	MIC values, Haemophilus parasuis (Haemophilus parasuis)	MIC values, Pasteurella multocida CVCC399 [2]	MIC values, Streptococcus equines CVCC556 [3]	MIC values, Actinobacillus pleuropneumoniae CVCC262 [4] [ug/mi]
CC[C@H]1OC(=O)[C@H](C)[C@@H](O[C@H]2C[C@@](C)(OC)[C@](O)(CNCCCNCCc3ccc(S(C)(=O)=O)cc3)[C@H](C)O2)[C@H](C)[C@@H](O[C@@H]2O[C@H](C)C[C@H](N(C)C)[C@H]2O)[C@](C)(O)C[C@@H](C)NC[C@H](C)[C@@H](O)[C@]1(C)O [Syzx-61, (2R,3S,4R,5S,8R,10R,11R,12S,13S,14R)-13-[(2,6-dideoxy-3-C-methyl-3-O-methyl-4-C-[[(4-mesylphenylethylamino)propylamino]-methyl]-α-L-ribopyranosyl)oxy]-2-ethyl-3,4,10-trihydroxy-3,5,8,10,12,14-hexamethyl-11-[[3,4,6-trideoxy-3-(dimethylamino)-β-D-xylo-hexopyranosy]oxy]-1-oxa-7-azacyclopentadecan-15-one]	≦0.25 ug/mi	≦0.25 ug/mi	1 ug/mi	0.5 ug/mi	32
CCCN1C[C@H](C)[C@@H](O)[C@](C)(O)[C@@H](CC)OC(=O)[C@H](C)[C@@H](O[C@H]2C[C@@](C)(OC)[C@](O)(CNC(C)(C)C)[C@H](C)O2)[C@H](C)[C@@H](O[C@@H]2O[C@H](C)C[C@H](N(C)C)[C@H]2O)[C@](C)(O)C[C@H]1C [syzx-1 14]	0.25 ug/mi	0.25 ug/mi	0.25 ug/mi	0.25 ug/mi	0.25
CCC1OC(=O)C(C)C(OC2CC(C)(OC)C(O)(CNc3ccccc3)C(C)O2)C(C)C(OC2OC(C)CC(N(C)C)C2O)C(C)(O)CC(C)NCC(C)C(O)C1(C)O [syzx-4, (2R,3S,4R,5S,8R,10R,11R,12S,13S,14R)-13-[(2,6-dideoxy-3-C-methyl-3-O-methyl-4-C-[(phenylamino)methyl]-α-L-ribopyranosyl)oxy]-2-ethyl-3,4,10-trihydroxy-3,5,8,10,12,14-hexamethyl-11-[[3,4,6-trideoxy-3-(dimethylamino)-β-D-xylo-hexopyranosy]oxy]-1-oxa-7-azacyclopentadecan-15-one]	1 ug/mi	0.5 ug/mi	1 ug/mi	≦0.25 ug/mi	32
CC[C@H]1OC(=O)[C@H](C)[C@@H](O[C@H]2C[C@@](C)(OC)[C@](O)(Cn3cccc3)[C@H](C)O2)[C@H](C)[C@@H](O[C@@H]2O[C@H](C)C[C@H](N(C)C)[C@H]2O)[C@](C)(O)C[C@@H](C)NC[C@H](C)[C@@H](O)[C@]1(C)O [syzx-7, (2R,3S,4R,5S,8R,10R,11R,12S,13S,14R)-13-[(2,6-dideoxy-3-C-methyl-3-O-methyl-4-C-[(pyrryl)methyl]-α-L-ribopyranosyl)oxy]-2-ethyl-3,4,10-trihydroxy-3,5,8,10,12,14-hexamethyl-11-[[3,4,6-trideoxy-3-(dimethylamino)-β-D-xylo-hexopyranosy]oxy]-1-oxa-7-azacyclopentadecan-15-one]	≦0.25 ug/mi	≦0.25 ug/mi	0.25 ug/mi	≦0.25 ug/mi	2
CC[C@H]1OC(=O)[C@H](C)[C@@H](O[C@H]2C[C@@](C)(OC)[C@](O)(Cn3ccnc3)[C@H](C)O2)[C@H](C)[C@@H](O[C@@H]2O[C@H](C)C[C@H](N(C)C)[C@H]2O)[C@](C)(O)C[C@@H](C)NC[C@H](C)[C@@H](O)[C@]1(C)O [syzx-9, (2R,3S,4R,5S,8R,10R,11R,12S,13S,14R)-13-[(2,6-dideoxy-3-C-methyl-3-O-methyl-4-C-[(imidazolyl)methyl]-α-L-ribopyranosyl)oxy]-2-ethyl-3,4,10-trihydroxy-3,5,8,10,12,14-hexamethyl-11-[[3,4,6-trideoxy-3-(dimethylamino)-β-D-xylo-hexopyranosy]oxy]-1-oxa-7-azacyclopentadecan-15-one]	≦0.25 ug/mi	≦0.25 ug/mi	≦0.25 ug/mi	≦0.25 ug/mi	0.5

The next lines start with the values.

MIC values, Staphylococcus aureus CVCC26003 [1]	MIC values, Haemophilus parasuis (Haemophilus parasuis)	MIC values, Pasteurella multocida CVCC399 [2]	MIC values, Streptococcus equines CVCC556 [3]	MIC values, Actinobacillus pleuropneumoniae CVCC262 [4] [ug/mi]	SMILES
≦0.25 ug/mi	≦0.25 ug/mi	0.25 ug/mi	≦0.25 ug/mi	0.5	CC[C@H]1OC(=O)[C@H](C)[C@@H](O[C@H]2C[C@@](C)(OC)[C@](O)(CNCc3ccc(F)cc3)[C@H](C)O2)[C@H](C)[C@@H](O[C@@H]2O[C@H](C)C[C@H](N(C)C)[C@H]2O)[C@](C)(O)C[C@@H](C)NC[C@H](C)[C@@H](O)[C@]1(C)O [syzx-8, (2R,3S,4R,5S,8R,10R,11R,12S,13S,14R)-13-[(2,6-dideoxy-3-C-methyl-3-O-methyl-4-C-[(4-fluorobenzylamino)methyl]-α-L-ribopyranosyl)oxy]-2-ethyl-3,4,10-trihydroxy-3,5,8,10,12,14-hexamethyl-11-[[3,4,6-trideoxy-3-(dimethylamino)-β-D-xylo-hexopyranosy]oxy]-1-oxa-7-azacyclopentadecan-15-one]
0.5 ug/mi	0.5 ug/mi	2 ug/mi	–	16	CC[C@H]1OC(=O)[C@H](C)[C@@H](O[C@H]2C[C@@](C)(OC)[C@](O)(CNCc3ccc(OC)cc3)[C@H](C)O2)[C@H](C)[C@@H](O[C@@H]2O[C@H](C)C[C@H](N(C)C)[C@H]2O)[C@](C)(O)C[C@@H](C)NC[C@H](C)[C@@H](O)[C@]1(C)O [syzx-18, (2R,3S,4R,5S,8R,10R,11R,12S,13S,14R)-13-[(2,6-dideoxy-3-C-methyl-3-O-methyl-4-C-[(4-methoxybenzylamino)methyl]-α-L-ribopyranosyl)oxy]-2-ethyl-3,4,10-trihydroxy-3,5,8,10,12,14-hexamethyl-11-[[3,4,6-trideoxy-3-(dimethylamino)-β-D-xylo-hexopyranosy]oxy]-1-oxa-7-azacyclopentadecan-15-one]
≦0.25 ug/mi	≦0.25 ug/mi	0.25 ug/mi	≦0.25 ug/mi	2	CC[C@H]1OC(=O)[C@H](C)[C@@H](O[C@H]2C[C@@](C)(OC)[C@](O)(CNCc3ccc(Cl)cc3)[C@H](C)O2)[C@H](C)[C@@H](O[C@@H]2O[C@H](C)C[C@H](N(C)C)[C@H]2O)[C@](C)(O)C[C@@H](C)NC[C@H](C)[C@@H](O)[C@]1(C)O [syzx-20, (2R,3S,4R,5S,8R,10R,11R,12S,13S,14R)-13-[(2,6-dideoxy-3-C-methyl-3-O-methyl-4-C-[(4-chlorolbenzylamino)methyl]-α-L-ribopyranosyl)oxy]-2-ethyl-3,4,10-trihydroxy-3,5,8,10,12,14-hexamethyl-11-[[3,4,6-trideoxy-3-(dimethylamino)-β-D-xylo-hexopyranosy]oxy]-1-oxa-7-azacyclopentadecan-15-one]

Source: US9765105B2, “Macrolide compound” (Pulike Biological Engineering, Inc., priority 2013, dated 2017)
